{"source": "patent US7384656B2", "about": "“Anti-allergy composition and related method” (Access Business Group International LLC, priority 2004, dated 2008)", "key": {"[1]": {"system": "IgE secretion by U266 human myeloma cells", "assay": "IgE secretion by U266 human myeloma cells (IgE ELISA of supernatants)", "assay_type": "cell-based", "settings": "varying concentrations", "procedure": "The methodology used to obtain the results of FIG. 3 will now be described. First, U266 human myeloma cells, available from ATCC of Manassas, Va. were plated in 96 well plates at 4×10^4/well. The cells were exposed to the sample combinations of ingredients listed in Table I, each combination referred to as a “sample.” Stock solutions of all samples were prepared in a solution of DMSO, ethanol, and water present in a ratio of 5:3:2 at 100 mg/ml. Each sample was then diluted to 100 μg/ml in media. Duplicate plates of each sample were prepared so that viability could be determined multiple times for each sample, with the results of the multiple samples averaged following treatment of the cells. The plates were incubated an additional 48 hours. Thereafter, the amount of IgE in the supernatants was measured using a conventional quantitative IgE ELISA kit available from Bethyl Laboratories of Montgomery, Tex. Next, the measured OD450 data from the IgE ELISA was inputted into a calibration graph, illustrated in FIG. 4, to determine the concentration of IgE in ng/ml in each supernatant. This calibration graph was generated by measuring the OD450 of multiple, known concentrations (in nanograms per ml) of purified IgE. As shown in the graph, the X-axis indicates the concentrations of the IgE in ng/ml; and the Y-axis indicates the OD450 derived from each of the concentrations. The line 100 connects the data points, while line 110 is a trend line corresponding to the equation in this particular embodiment of: Y=0.2909X−0.2527 Equation 1 With the IgE calibration graph, the amount of IgE for each sample was determined, and the subsequent data was input into FIG. 3 for comparative analysis."}, "[2]": {"system": "IgE receptor (FcεRIα) on RBL-2H3 cells", "assay": "IgE receptor expression on RBL-2H3 cells (anti-FcεRIα cell ELISA normalized to MTT viability)", "assay_type": "cell-based", "procedure": "The methodology used to obtain the results of FIG. 1 will now be described. First, RBL-2H3 cells, available from ATCC (American Type Culture Collection) of Manassas, Va., were plated in 96 well plates at 3×10^4/well. Following adherence to the wells, the cells were exposed to the sample combinations of ingredients listed in Table I, each combination referred to as a “sample.” Stock solutions of all samples were prepared in a solution of DMSO, ethanol, and water present in a ratio of 5:3:2 at 100 mg/ml. […] Duplicate plates of each sample were prepared so that viability could be determined multiple times for each sample, with the results of the multiple samples averaged following treatment of the cells. The plates were incubated an additional 48 hours. To measure IgE-receptor expression, the cells were fixed for 2 hours with 1% gluteraldehyde. Following fixation, the cells were washed twice with PBS-Tween 20 (0.01%), available from Aldrich of Milwaukee, Wis. Protein binding sites were blocked for 2 hours with 2% non-fat dry milk in PBS (Phosphate Buffer Saline buffered at pH 7.3). The cells were washed twice. The primary antibody, Rabbit anti-FcεRIα, available from Upstate Group, Inc., Lake Placid, N.Y., was added to the wells and diluted 1:4000 with 0.2% BSA (Bovine Serum Albumin). Following a 2 hour incubation, the wells were washed 5× with PBS-Tween 20 (0.01%) solutions. The secondary antibody, Goat anti-rabbit IgG-peroxidase, available from Sigma-Aldrich of St. Louis, Mo., was added to the wells at 1:20000 with 0.2% BSA. Following a 1 hour incubation the wells were washed five times. 100 μliters (microliters) of TMB (3,3′,5,5±Tetramethyl benzidine dihydrochloride) Substrate, available from Chemicon International of Temecula, Calif., was added to the wells. Subsequent color development was stopped by the addition of a sufficient amount, H2SO4 (for example, 100 μliters at 1 Normal). For each of the multiple samples of the combination, the OD450 (Optical Density measured at a wavelength of 450 nanometers) was read on a plate reader. Continuing with a description of the methodology to obtain the data in FIG. 1, the viability of the cells was next determined by incubating the cells in the second plate with MTT in a concentration of 1 mg/ml for 3 hours. The reduced MTT was extracted with 70% isopropanol and the OD540 (Optical Density at a wavelength of 540 nanometers) was read for each of the multiple samples."}, "[3]": {"system": "LTC4 release, RBL-2H3 cells", "assay": "LTC4 release from IgE-sensitized, DNP-BSA stimulated RBL-2H3 cells (ELISA)", "assay_type": "cell-based", "settings": "0.1 μg/ml", "procedure": "(§1) The methodology used to obtain the results of FIG. 9 will now be described. First, RBL-2H3 cells, available from ATCC (American Type Culture Collection) of Manassas, Va., were plated in 24 well plates at 5×10^4/well. Following adherence, the cells were exposed to the ingredients or combination of ingredients noted in FIG. 9, also referred to as samples. The samples were used at the concentrations noted in Table VI. Stock solutions of all samples were prepared in a solution of DMSO, ethanol, and water present in a ratio of 5:3:2 at 100 mg/ml. Each sample was then diluted in media to the final concentration. The cells were then incubated overnight with the samples. The following day a mouse anti-dinitrophenyl (DNP) IgE antibody, available from Sigma of St. Louis, Mo., was added to the cells at a final concentration of 1 ng/ml. The cells were incubated for 1.5 hr at 37° C. to allow binding of the IgE molecule to the cellular IgE receptor via the constant region of the antibody. Following this incubation period, the cells were washed twice. A solution containing DNP conjugated to BSA (DNP-BSA), available from Calbiochem of San Diego, Calif., was added to the cells at 0.5 ng/ml. […] Next, the measured OD450 data from the ELISA was inputted into a calibration graph to determine the amount by which histamine was reduced relative to an untreated control sample. […]"}, "[4]": {"system": "histamine release, RBL-2H3 cells", "assay": "Histamine release from IgE-sensitized, DNP-BSA stimulated RBL-2H3 cells (ELISA)", "assay_type": "cell-based", "settings": "10 ng/ml", "procedure": "The methodology used to obtain the results of FIG. 9 will now be described. First, RBL-2H3 cells, available from ATCC (American Type Culture Collection) of Manassas, Va., were plated in 24 well plates at 5×10^4/well. Following adherence, the cells were exposed to the ingredients or combination of ingredients noted in FIG. 9, also referred to as samples. The samples were used at the concentrations noted in Table VI. Stock solutions of all samples were prepared in a solution of DMSO, ethanol, and water present in a ratio of 5:3:2 at 100 mg/ml. Each sample was then diluted in media to the final concentration. The cells were then incubated overnight with the samples. The following day a mouse anti-dinitrophenyl (DNP) IgE antibody, available from Sigma of St. Louis, Mo., was added to the cells at a final concentration of 1 ng/ml. The cells were incubated for 1.5 hr at 37° C. to allow binding of the IgE molecule to the cellular IgE receptor via the constant region of the antibody. Following this incubation period, the cells were washed twice. A solution containing DNP conjugated to BSA (DNP-BSA), available from Calbiochem of San Diego, Calif., was added to the cells at 0.5 ng/ml. The cells were incubated an additional 1 hr at 37° C. The supernatants were assayed for the presence of histamine, PGD2 and/or LTC4 using ELISA kits commercially available from Cayman Chemical of Ann Arbor, Mich. according to the manufacturer's specifications. Next, the measured OD450 data from the ELISA was inputted into a calibration graph to determine the amount by which histamine was reduced relative to an untreated control sample. An example of a histamine calibration graph is illustrated in FIG. 10. Suffice it to say that calibration graphs for PGD2 and LTC4 are similar. The calibration graph in FIG. 10 was generated by measuring the OD450 of multiple, known concentrations of purified histamine. As shown in the graph, the X-axis indicates the concentrations of the histamine in nanomolar; and the Y-axis indicates the OD450 derived from each of the concentrations. The line 120 connects the data points, while line 130 is a trend line corresponding to the equation in this particular embodiment of: Y=−0.0025X^2+0.2915X+2.0775 Equation 2 With the histamine calibration graph, the amount of histamine for each sample was determined, and the subsequent data was input into Table VI and FIG. 9 for comparative analysis."}, "[5]": {"system": "PGD2 release, RBL-2H3 cells", "assay": "PGD2 release from IgE-sensitized, DNP-BSA stimulated RBL-2H3 cells (ELISA)", "assay_type": "cell-based", "settings": "1 μg/ml", "procedure": "as §1"}, "Prostaglandin D2": {"system": "Prostaglandin D2", "assay": "Allergic mediators in nasal fluid (nasal lavage) before and after NAC", "assay_type": "in vivo, human", "settings": "before versus after administration of allergens", "procedure": "To test the efficacy of an embodiment of the composition in inhibiting an allergic response, a comparative clinical study was conducted on human subjects. This clinical study consisted of testing twenty subjects for positive allergic reaction to allergen extracts (cat dander, pollen and grass). The subjects were then randomized to receive: a control, specifically a placebo; loratadine, a known anti-histamine drug, sold under the trademark CLARITIN, and a composition of the above embodiments including Picao preto, Acerola, and Cinnamon (referred to herein as the Blend). […]\n(§2) During the NAC, subjects had […] increasing doses of allergen (0 (water was administered), 50, 250, 1250, and 6250 Bioequivalent Allergy Units/ml (BAU/ml)) squirted up their noses over a period of two hours. Bioequivalent Allergy Units were calculated using ID50EAL testing (Intradermal Dilution for 50 mm Sum of Erythema Determines Bioequivalent Allergy Units) (Turkeltaub PC, Biological standardization of allergenic extracts. Allergol Immunopathol (Madr). 1989, 17:53-65.\nThe allergic symptoms of the twenty subjects were measured ten minutes after each exposure to the with an eleven-point Nasal Symptom Scale, (on a scale of 1-11, 11 being the most symptoms observed), which is common to the NAC, to establish the Nasal Symptom Score. […]"}, "[6]": {"system": "allergic response to allergen extracts (cat dander, pollen and grass)", "assay": "Clinical study with Nasal Allergen Challenge (NAC): symptom scores and sneeze counts", "assay_type": "in vivo, human", "procedure": "To test the efficacy of an embodiment of the composition in inhibiting an allergic response, a comparative clinical study was conducted on human subjects. This clinical study consisted of testing twenty subjects for positive allergic reaction to allergen extracts (cat dander, pollen and grass). The subjects were then randomized to receive: a control, specifically a placebo; loratadine, a known anti-histamine drug, sold under the trademark CLARITIN, and a composition of the above embodiments including Picao preto, Acerola, and Cinnamon (referred to herein as the Blend). Each of these were administered to the subjects in three doses a day for two days before receiving a Nasal Allergen Challenge (NAC), which is a commonly used test for predicting real-life efficacy of allergen treatments. Specifically, Claritin was administered in an amount of 10 mg per dose; the placebo in an amount of 450 mg per dose; and the Blend in an amount of 450 mg per dose, that dose for the Blend including 150 mg Picao preto; 150 mg Acerola and 150 mg Cinnamon. Other suitable Cinnamon levels are in the range of about 25 mg to about 650 mg; suitable Picao preto levels are in the range of 25 to about 650 mg; and suitable Acerola levels are in the range of about 25 mg to about 650 mg.\nas §2\nTo analyze the allergy treatment effects of the Blend, Claritin and the placebo, a composite measurement of blockage, secretion and sneezing was determined. The smallest clinically meaningful difference in allergy treatment effects has been determined to be about a 0.5 score step on an 0 to 9 scale of the composite measurement of blockage, secretion and sneezing. Akerlund, A. et al, Clinical Trial Design, Nasal Allergen Challenge Models and Considerations of relevance to Pediatrics, Nasal Polyposis and Different Classes of Medication. J. Allergy. Clin. Imm., 115 (3.2): S460-482 (March 2005). Measurements used in connection determining blockage, secretion and sneezing were the Nasal Symptoms Score, the Pruritus-Rhinorrhea-Conjunctivitis Score, and sneeze counting, respectively.\nThe allergic symptoms of the twenty subjects were measured ten minutes after each exposure to the with an eleven-point Nasal Symptom Scale, (on a scale of 1-11, 11 being the most symptoms observed), which is common to the NAC, to establish the Nasal Symptom Score. The subjects also underwent the nasal lavage to collect supernatants which were assayed for allergic reaction and inflammatory mediators: prostaglandin D2; Leukotriene […]; and tryptase.\nAfter the NAC, subjects were released, but continued rating their symptoms every two hours for eight hours using the Nasal Symptom Scale, as well as a 15-point Pruritus-Rhinorrhea-Conjunctivitis Scale, which is a common scale that is intended to be more sensitive than the Nasal Symptom Scale. On this scale, Pruritus, Rhinorrhea, and Conjunctivitis were each rated as none, mild, mild to moderate, moderate, moderate to severe, or severe, scored 0, 1, 2, 3, 4, or 5 points respectively, with a maximum total of 15 points for all three together. In addition, during the eight hour period, the subjects counted and recorded the number of their sneezes within each two-hour period to establish a sneeze count. […]"}, "[7]": {"settings": "immediate phase (two hours during the NAC)"}}}
{"smiles": "O=C1O[C@H]([C@@H](O)CO)C(O)=C1O", "note": "[Vitamin C]", "values": [{"measurement": "inhibition of IgE secretion, in words (FIG. 6)", "setting": "[1]", "value": "inhibited IgE secretion"}, {"measurement": "decrease in IgE receptor expression (FIG. 5)", "setting": "[2]; 200 micrograms per milliliter", "value": 15, "unit": "%"}, {"measurement": "effect on IgE receptor expression, in words (FIG. 5)", "setting": "[2]; varying concentrations", "value": "significant effect"}]}
{"smiles": "O=C(/C=C/c1ccc(O)c(O)c1)O[C@H](Cc1ccc(O)c(O)c1)C(=O)O", "note": "[Rosmarinic acid]", "values": [{"measurement": "Percent Control LTC4 Release (Table VI)", "setting": "[3]", "value": 120, "unit": "%"}, {"measurement": "Percent Control of Histamine Release (Table VI)", "setting": "[4]", "value": 9.3, "unit": "%"}, {"measurement": "Percent Control of PGD2 Release (Table VI)", "setting": "[5]", "value": 94, "unit": "%"}]}
{"smiles": "CCOC(=O)N1CCC(=C2c3ccc(Cl)cc3CCc3cccnc32)CC1", "note": "[Claritin, loratadine]", "values": [{"measurement": "change of Prostaglandin D2 in nasal fluid after the NAC (FIG. 19)", "setting": "Prostaglandin D2", "value": "significant rise"}, {"measurement": "Nasal Symptom Scores versus placebo", "setting": "[6]; delayed phase, at six hours and overall, Blend 450 mg per dose, Claritin 10 mg", "value": "significantly fewer"}, {"measurement": "Nasal Symptom Score versus placebo (FIG. 15)", "setting": "[6]; delayed phase, at two hours", "value": "trends toward significantly fewer symptoms"}, {"measurement": "PRC score versus the Blend", "setting": "[6]; [7]", "value": "lower PRC score"}, {"measurement": "sneezes versus the Blend", "setting": "[6]; [7]", "value": "fewer sneezes"}, {"measurement": "Nasal Symptom Score versus the Blend", "setting": "[6]; immediate phase (two hours during the NAC), Claritin 10 mg per dose", "value": "lower Nasal Symptom Score"}, {"measurement": "Nasal Symptom Score Areas Over the Curve versus placebo (FIG. 18)", "setting": "[6]; total product effect over eight hours", "value": "significantly better than the placebo"}]}
